Values after ≈ are worked out from the molar mass of the structure shown. Some results are limits rather than exact numbers.

These results are taken from US7176313B2, “Anti acid-fast bacterial agent containing pyridonecarboxylic acids as active ingredient” (Daiichi Pharmaceutical Co., Ltd., priority 2000, dated 2007).

In one assay the test system is M. intracellulare. Put plainly: Antibacterial activity (MIC) against M. intracellulare. To be noted: Table 3. Format: cell-based, Mycobacterium intracellulare. As to the method:
Antibacterial activity of the compounds of the invention was measured in accordance with the method described in the literature of Antimicrob. Agents and Chemother., 38, 2877 (1994), and the results are shown in Tables 3 to 8 in terms of MIC (μg/ml). In the tables, “OFLX” is an abbreviation of “OFLOXAIN”.

For another assay, the system named is M. avium. The assay is described as follows: Antibacterial activity (MIC) against M. avium. It is filed as cell-based, Mycobacterium avium. To be noted: Table 3. As to the method:
Antibacterial activity of the compounds of the invention was measured in accordance with the method described in the literature of Antimicrob. […] In the tables, “OFLX” is an abbreviation of “OFLOXAIN”.

The test system of assay [1] is Mycobacterium tuberculosis (RFP sensitive). The assay is described as follows: Antibacterial activity (MIC) against Mycobacterium tuberculosis (RFP sensitive). Format: cell-based. To be noted: Table 5.

As usually defined, the MIC is the lowest concentration found to suppress growth. Lower therefore signals greater potency. Regarding `COc1c(N2CC(N)C3(CC3)C2)c(F)cc2c(=O)c(C(=O)O)cn(C3CC3)c12` (stereo not drawn) [Compd. 7], the minimal inhibitory concentration (MIC) worked out at 0.78 mg/L (≈ 2.01 µM) with M. intracellulare (M. intracellulare N-294); 0.2 mg/L (≈ 0.516 µM) against M. intracellulare (M. intracellulare N-313); 0.39 mg/L (≈ 1.01 µM) against M. intracellulare (M. intracellulare N-338); 1.56 mg/L (≈ 4.03 µM) in the assay on M. intracellulare (M. intracellulare N-345); 0.39 mg/L (≈ 1.01 µM) with M. avium (M. avium N-357); 1.56 mg/L (≈ 4.03 µM) against M. avium (M. avium N-444). In addition, the MIC was found to be 0.78 mg/L (≈ 2.01 µM) against M. avium (M. avium N-458) and 6.25 mg/L (≈ 16.1 µM) against M. avium (M. avium N-472).
`COc1c(N2CC(N)C3(CC3)C2)c(F)cc2c(=O)c(C(=O)O)cn([C@@H]3C[C@@H]3F)c12` (stereo partly drawn) [Compd. 8]: the MIC worked out at 0.10 mg/L (≈ 0.247 µM) in assay [1] (M. tuberculosis H37Rv); 0.05 mg/L (≈ 0.123 µM) in assay [1] (M. tuberculosis Kurono); 0.10 mg/L (≈ 0.247 µM) in assay [1] (M. tuberculosis No. 40); 0.006 mg/L (≈ 0.0148 µM) in assay [1] (M. tuberculosis No. 41); 0.78 mg/L (≈ 1.92 µM) in assay [1] (M. tuberculosis No. 43); 0.20 mg/L (≈ 0.493 µM) in assay [1] (M. tuberculosis No. 68). Moreover, the MIC with M. intracellulare (M. intracellulare N-294) was found to be 1.56 mg/L (≈ 3.85 µM); in the assay on M. intracellulare (M. intracellulare N-313), 0.39 mg/L (≈ 0.962 µM); against M. intracellulare (M. intracellulare N-338) it was 1.56 mg/L (≈ 3.85 µM); in the assay on M. intracellulare (M. intracellulare N-345), 1.56 mg/L (≈ 3.85 µM); in the assay on M. avium (M. avium N-357), 1.56 mg/L (≈ 3.85 µM); with M. avium (M. avium N-444), 1.56 mg/L (≈ 3.85 µM). The MIC in the assay on M. avium (M. avium N-458) was 0.78 mg/L (≈ 1.92 µM); against M. avium (M. avium N-472) it was 3.13 mg/L (≈ 7.72 µM).
`Cc1c(N2CC3CCCNC3C2)c(F)cc2c(=O)c(C(=O)O)cn(C3CC3)c12` (stereo not drawn) [Compd. 9]: the MIC was 0.025 mg/L (≈ 0.0649 µM) in assay [1] (M. tuberculosis H37Rv); 0.013 mg/L (≈ 0.0337 µM) in assay [1] (M. tuberculosis Kurono); 0.013 mg/L (≈ 0.0337 µM) in assay [1] (M. tuberculosis No. 40); <0.003 mg/L in assay [1] (M. tuberculosis No. 41); 0.10 mg/L (≈ 0.259 µM) in assay [1] (M. tuberculosis No. 43); 0.025 mg/L (≈ 0.0649 µM) in assay [1] (M. tuberculosis No. 68). Besides, the minimum inhibitory concentration (MIC) against M. intracellulare (M. intracellulare N-294) was determined as 0.39 mg/L (≈ 1.01 µM); with M. intracellulare (M. intracellulare N-313), 0.10 mg/L (≈ 0.259 µM); against M. intracellulare (M. intracellulare N-338), 0.39 mg/L (≈ 1.01 µM); with M. intracellulare (M. intracellulare N-345), 0.39 mg/L (≈ 1.01 µM); in the assay on M. avium (M. avium N-357) it was 0.10 mg/L (≈ 0.259 µM); in the assay with M. avium (M. avium N-444), 0.10 mg/L (≈ 0.259 µM). Further, the MIC against M. avium (M. avium N-458) stood at 0.10 mg/L (≈ 0.259 µM); against M. avium (M. avium N-472) it was 0.78 mg/L (≈ 2.02 µM).
Regarding `Cc1c(N2CC3CCCNC3C2)c(F)cc2c(=O)c(C(=O)O)cn([C@@H]3C[C@@H]3F)c12` (stereo partly drawn) [Compd. 10], the MIC was 0.013 mg/L (≈ 0.0322 µM) in assay [1] (M. tuberculosis H37Rv); 0.006 mg/L (≈ 0.0149 µM) in assay [1] (M. tuberculosis Kurono); 0.006 mg/L (≈ 0.0149 µM) in assay [1] (M. tuberculosis No. 40); <0.003 mg/L in assay [1] (M. tuberculosis No. 41); 0.05 mg/L (≈ 0.124 µM) in assay [1] (M. tuberculosis No. 43); 0.013 mg/L (≈ 0.0322 µM) in assay [1] (M. tuberculosis No. 68). In addition, the MIC against M. intracellulare (M. intracellulare N-294) was found to be 0.39 mg/L (≈ 0.967 µM); against M. intracellulare (M. intracellulare N-313) it was 0.10 mg/L (≈ 0.248 µM); against M. intracellulare (M. intracellulare N-338) it was 0.39 mg/L (≈ 0.967 µM); with M. intracellulare (M. intracellulare N-345), 0.78 mg/L (≈ 1.93 µM); with M. avium (M. avium N-357), 0.05 mg/L (≈ 0.124 µM); in the assay on M. avium (M. avium N-444), 0.39 mg/L (≈ 0.967 µM). The MIC in the assay on M. avium (M. avium N-458) came out at 0.10 mg/L (≈ 0.248 µM); in the assay with M. avium (M. avium N-472), 0.39 mg/L (≈ 0.967 µM).
`Cc1c(N2CC(N)C3(CC3)C2)c(F)cc2c(=O)c(C(=O)O)cn(C3CC3)c12` (stereo not drawn) [Compd. 11]: the MIC in assay [1] (M. tuberculosis H37Rv) was found to be 0.05 mg/L (≈ 0.135 µM); in assay [1] (M. tuberculosis Kurono) it was 0.05 mg/L (≈ 0.135 µM); in assay [1] (M. tuberculosis No. 40), 0.05 mg/L (≈ 0.135 µM); in assay [1] (M. tuberculosis No. 41), 0.013 mg/L (≈ 0.035 µM); in assay [1] (M. tuberculosis No. 43) it was 0.39 mg/L (≈ 1.05 µM); in assay [1] (M. tuberculosis No. 68) it was 0.05 mg/L (≈ 0.135 µM). Moreover, the minimum inhibitory concentration (MIC) against M. intracellulare (M. intracellulare N-294) was 1.56 mg/L (≈ 4.2 µM); against M. intracellulare (M. intracellulare N-313), 0.39 mg/L (≈ 1.05 µM); with M. intracellulare (M. intracellulare N-338) it was 1.56 mg/L (≈ 4.2 µM); in the assay with M. intracellulare (M. intracellulare N-345), 3.13 mg/L (≈ 8.43 µM); with M. avium (M. avium N-357), 0.39 mg/L (≈ 1.05 µM); against M. avium (M. avium N-444) it was 1.56 mg/L (≈ 4.2 µM). Further, the figures for the MIC against M. avium (M. avium N-458) and against M. avium (M. avium N-472) were 0.39 mg/L (≈ 1.05 µM) and 3.13 mg/L (≈ 8.43 µM), respectively.
With `Cc1c(N2CC(N)C3(CC3)C2)c(F)cc2c(=O)c(C(=O)O)cn([C@@H]3C[C@@H]3F)c12` (stereo partly drawn) [Compd. 12], the MIC in assay [1] (M. tuberculosis H37Rv) was 0.025 mg/L (≈ 0.0642 µM); in assay [1] (M. tuberculosis Kurono), 0.025 mg/L (≈ 0.0642 µM); in assay [1] (M. tuberculosis No. 40), 0.025 mg/L (≈ 0.0642 µM); in assay [1] (M. tuberculosis No. 41) it was 0.006 mg/L (≈ 0.0154 µM); in assay [1] (M. tuberculosis No. 43), 0.10 mg/L (≈ 0.257 µM); in assay [1] (M. tuberculosis No. 68) it was 0.05 mg/L (≈ 0.128 µM). Further, the MIC against M. intracellulare (M. intracellulare N-294) turned out to be 0.78 mg/L (≈ 2 µM); in the assay on M. intracellulare (M. intracellulare N-313), 0.20 mg/L (≈ 0.514 µM); in the assay with M. intracellulare (M. intracellulare N-338) it was 0.39 mg/L (≈ 1 µM); in the assay with M. intracellulare (M. intracellulare N-345) it was 0.39 mg/L (≈ 1 µM); against M. avium (M. avium N-357), 0.20 mg/L (≈ 0.514 µM); in the assay with M. avium (M. avium N-444) it was 0.39 mg/L (≈ 1 µM). The figures for the MIC in the assay with M. avium (M. avium N-458) and against M. avium (M. avium N-472) were 0.39 mg/L (≈ 1 µM) and 1.56 mg/L (≈ 4.01 µM), respectively.
Regarding `C[C@H]1COc2c(N3CC4CCCNC4C3)c(F)cc3c(=O)c(C(=O)O)cn1c23` (stereo partly drawn) [Compd. 13], the MIC in assay [1] (M. tuberculosis H37Rv) is 0.05 mg/L (≈ 0.129 µM); in assay [1] (M. tuberculosis Kurono), 0.05 mg/L (≈ 0.129 µM); in assay [1] (M. tuberculosis No. 40) it was 0.05 mg/L (≈ 0.129 µM); in assay [1] (M. tuberculosis No. 68) it was 0.10 mg/L (≈ 0.258 µM); with M. intracellulare (M. intracellulare N-294), 1.56 mg/L (≈ 4.03 µM); against M. intracellulare (M. intracellulare N-313), 0.39 mg/L (≈ 1.01 µM). Also, the MIC against M. intracellulare (M. intracellulare N-338) was determined as 1.56 mg/L (≈ 4.03 µM); against M. intracellulare (M. intracellulare N-345), 3.13 mg/L (≈ 8.08 µM); against M. avium (M. avium N-357), 0.39 mg/L (≈ 1.01 µM); with M. avium (M. avium N-444) it was 0.78 mg/L (≈ 2.01 µM); in the assay on M. avium (M. avium N-458) it was 0.20 mg/L (≈ 0.516 µM); in the assay on M. avium (M. avium N-472) it was 1.56 mg/L (≈ 4.03 µM).
